Publication PMC8455565 (Scientific Reports, 2021)

Legend:
A431 = test: Cell growth inhibition in EGFR overexpressed A431; format: cell-based; conditions: Homo sapiens, A-431; cellular level; read-out: IC50, cell growth inhibition in EGFR overexppressed A431
BTK [1] = target: T1, BTK (Homo sapiens, UniProt Q06187); test: Kinase selectivity biochemical assay (FRET), BTK; conditions: Supplementary Table 1, biochemical assay
JAK3 = target: T2, JAK3 (Homo sapiens, UniProt P52333); test: Kinase selectivity biochemical assay, JAK3; conditions: biochemical assay
T2 sequence (P52333 1-1124): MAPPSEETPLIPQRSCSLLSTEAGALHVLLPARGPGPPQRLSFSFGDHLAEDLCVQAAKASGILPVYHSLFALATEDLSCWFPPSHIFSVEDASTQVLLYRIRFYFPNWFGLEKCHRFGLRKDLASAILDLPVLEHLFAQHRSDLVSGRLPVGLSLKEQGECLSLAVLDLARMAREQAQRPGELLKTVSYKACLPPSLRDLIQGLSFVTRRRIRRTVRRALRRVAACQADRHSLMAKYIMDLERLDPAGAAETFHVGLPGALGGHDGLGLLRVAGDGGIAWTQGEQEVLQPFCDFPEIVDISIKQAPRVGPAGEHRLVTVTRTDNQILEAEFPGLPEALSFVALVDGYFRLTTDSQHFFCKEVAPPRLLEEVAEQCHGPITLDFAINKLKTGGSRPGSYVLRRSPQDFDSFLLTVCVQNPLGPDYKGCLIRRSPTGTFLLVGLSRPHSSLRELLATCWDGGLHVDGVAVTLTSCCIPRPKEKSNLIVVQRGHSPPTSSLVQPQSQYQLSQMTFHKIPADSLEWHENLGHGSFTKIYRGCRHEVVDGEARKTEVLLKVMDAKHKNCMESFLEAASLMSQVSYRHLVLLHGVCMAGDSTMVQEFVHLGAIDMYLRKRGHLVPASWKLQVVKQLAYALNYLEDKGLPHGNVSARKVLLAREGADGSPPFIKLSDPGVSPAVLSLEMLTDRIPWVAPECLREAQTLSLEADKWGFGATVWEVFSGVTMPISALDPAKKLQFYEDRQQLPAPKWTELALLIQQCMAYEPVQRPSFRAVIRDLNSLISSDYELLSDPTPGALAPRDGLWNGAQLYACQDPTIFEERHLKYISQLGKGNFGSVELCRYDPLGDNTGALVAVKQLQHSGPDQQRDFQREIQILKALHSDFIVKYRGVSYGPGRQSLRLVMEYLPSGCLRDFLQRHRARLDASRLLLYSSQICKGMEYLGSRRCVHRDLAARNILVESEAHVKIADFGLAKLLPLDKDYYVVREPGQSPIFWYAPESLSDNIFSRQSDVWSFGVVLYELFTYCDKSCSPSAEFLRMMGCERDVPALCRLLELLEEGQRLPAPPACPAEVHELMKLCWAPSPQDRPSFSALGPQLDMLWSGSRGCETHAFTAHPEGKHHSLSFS

BTK [2] = target: T1, BTK; test: hBTK Lanthascreen biochemical activity
BTK [3] = target: T1, BTK; test: BTK occupancy in B cell line (Ramos cells, biotinylated probe, AlphaScreen); format: cell-based
Protocol: A total of 5 × 10^5 Ramos cells/well were plated in 96-well PDL-coated plates in DMEM with high glucose (GIBCO) supplemented with 10% FBS. Serial dilutions of LY3439943 in DMSO (final DMSO concentration, 0.4%) were incubated with the cells for 1 h at 37 °C. An equal volume of a covalent biotinylated BTK probe was added (final concentration, 167 nM), and the cells were incubated for another 1 h at 37 °C. The cells were lysed, and the amount of BTK was determined using the AlphaScreen IgG Detection Kit (Perkin Elmer 6760617R) and an anti-BTK antibody (Thermo Scientific Cat# MA5-14929) following the manufacturer’s instructions. The signal was measured at 615 nm with an Envision plate reader (Perkin Elmer).

B cells [4] = test: B cell inhibition in whole blood; format: cell-based
B cells [5] = test: Antigen-presentation assay (OVA-preactivated B cells with DO11.10 T cells); format: cell-based, mouse
Protocol: DO11.10 and BALB/C mice were purchased from The Jackson Laboratory and housed in accordance with the policies of the IACUC of Eli Lilly and Company. BALB/C mice were primed with 10 µg/ml ovalbumin (OVA) in Alhydrogel (InvivoGen, CA, USA) at a 2:1 ratio and boosted with 10 µg/ml OVA in PBS 2 weeks after priming. BALB/C mice were sacrificed 4 days after boosting, and B cells were purified from splenocytes using CD19 microbeads (Miltenyi Biotec) for positive selection. B cells were preincubated with HM71305/LSN3359180 for 1 h before the addition of OVA protein or OVA323-339 peptide, and T cells were positively isolated from DO11.10 transgenic mice using CD4 microbeads (Miltenyi Biotec). The supernatants were collected after 18 h, and IL-2 was measured by ELISA using mouse IL-2 DuoSet (DY402, R&D Systems). FACS analysis of CD69 (H1.2F3, Biolegend), CD86 (B7-2, BD Biosciences) and H2-IA/IE (M5/114.15.3, BD Biosciences) was performed using BD LSR Fortessa, and data were analyzed by FlowJo10 (FlowJo, LLC).

CTLL-2 = test: IL-2 induced T cell proliferation in CTLL-2; format: cell-based; conditions: Mus musculus, cellular level
BTK [6] = target: T1, BTK; test: BTK occupancy in whole blood ex vivo; format: cell-based; design: from tissue; host or cells: whole blood

T1 sequence (Q06187 whole entry): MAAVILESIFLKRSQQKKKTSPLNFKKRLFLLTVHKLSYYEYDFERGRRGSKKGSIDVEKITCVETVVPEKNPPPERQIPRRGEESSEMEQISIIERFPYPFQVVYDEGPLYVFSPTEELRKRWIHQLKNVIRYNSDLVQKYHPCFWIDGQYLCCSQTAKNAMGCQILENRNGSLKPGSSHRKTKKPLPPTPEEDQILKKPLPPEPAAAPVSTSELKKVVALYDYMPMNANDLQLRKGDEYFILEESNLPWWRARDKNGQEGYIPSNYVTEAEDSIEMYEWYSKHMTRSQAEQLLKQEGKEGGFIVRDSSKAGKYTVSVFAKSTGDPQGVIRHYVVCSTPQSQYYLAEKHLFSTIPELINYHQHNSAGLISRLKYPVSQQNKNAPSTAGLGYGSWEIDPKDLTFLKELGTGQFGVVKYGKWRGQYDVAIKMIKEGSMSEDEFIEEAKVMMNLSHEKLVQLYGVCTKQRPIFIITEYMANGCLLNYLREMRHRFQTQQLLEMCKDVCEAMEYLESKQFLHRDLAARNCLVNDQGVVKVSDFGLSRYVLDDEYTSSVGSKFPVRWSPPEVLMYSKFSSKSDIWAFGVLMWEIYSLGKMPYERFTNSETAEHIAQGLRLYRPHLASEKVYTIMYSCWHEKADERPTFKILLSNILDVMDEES

IC50 (A431): > 500 nM | IC50 (BTK [1]): 3 nM | IC50 (JAK3): 39 nM | IC50 (BTK [2]): 3 nM | IC50 (BTK [3]): 6 nM | IC50 (B cells [4]): 440 nM | IC50 (B cells [5]; Mus musculus, B-cell, in vivo preactivated B cells, roughly, read-out: IC50 effect on the B cells (CD80 and CD86 expression)): ~100 nM | IC50 (BTK [6]): 170 nM
SMILES: C=CC(=O)Nc1cccc(Oc2nc(Nc3ccc(N4CCN(C(C)C)CC4)cc3)nc3ccoc23)c1 [HM71035]
B cell-dependent T cell activation (IL-2 secretion, CD69 expression on T cells) (B cells [5]; B cells preincubated 1 h with compound, coculture with DO11.10 T cells): reduced in a dose-dependent fashion | IC50 (CTLL-2): > 500 nM
